Experiments:
Format in all cases: functional, organism-based
Plasmodium falciparum [1] = experiment: Antiplasmodial activity against chloroquine-resistant erythrocyte stage Plasmodium falciparum Dd2 assessed as inhibition of parasite growth incubated for 3 days by ELISA; conditions: 72 h
Plasmodium falciparum [2] = experiment: Antiplasmodial activity against chloroquine-sensitive erythrocyte stage Plasmodium falciparum 3D7 assessed as inhibition of parasite growth incubated for 3 days by ELISA; conditions: 3D7, Erythrocyte, 72 h
Plasmodium falciparum [3] = experiment: Antimalarial activity against chloroquine-sensitive Plasmodium falciparum 3D7 assessed as reduction in parasite growth
Plasmodium falciparum [4] = experiment: Antimalarial activity against chloroquine-resistant Plasmodium falciparum K1 assessed as reduction in parasite growth
Plasmodium falciparum [5] = experiment: Antimalarial activity against chloroquine-resistant Plasmodium falciparum FcB1 assessed as inhibition of parasite growth
Plasmodium falciparum [6] = experiment: Antimalarial activity against Plasmodium falciparum 3D7 infected in human A positive erythrocytes assessed as reduction in parasite growth incubated for 24 hrs by [3H]hypoxanthine based scintillation counting analysis; conditions: 3D7, Erythrocyte
Plasmodium falciparum [7] = experiment: Antimalarial activity against chloroquine-resistant Plasmodium falciparum K1 infected in human A positive erythrocytes assessed as reduction in parasite growth incubated for 24 hrs by [3H]hypoxanthine based scintillation counting analysis; conditions: K1, Erythrocyte
Plasmodium falciparum [8] = experiment: Antimalarial activity against chloroquine-resistant Plasmodium falciparum W2 transfected in human type A-positive RBC cells assessed reduction in parasite growth by measuring LDH activity incubated for 72 hrs by spectrophotometric analysis; conditions: Plasmodium falciparum, W2, Erythrocyte, 72 h
Plasmodium falciparum [9] = experiment: Antimalarial activity against chloroquine-sensitive Plasmodium falciparum D10 transfected in human type A-positive RBC cells assessed reduction in parasite growth by measuring LDH activity incubated for 72 hrs by spectrophotometric analysis; conditions: Plasmodium falciparum, D10, Erythrocyte, 72 h
Plasmodium falciparum [10] = experiment: Antiplasmodial activity against multi-resistant Plasmodium falciparum W2 infected in erythrocytes assessed as inhibition of parasite growth incubated for 48 hrs by flow cytometry; conditions: W2, Erythrocyte
Plasmodium falciparum [11] = experiment: Antimalarial activity against chloroquine-resistant Plasmodium falciparum K1 assessed as reduction in parasite growth incubated for 72 hrs by ELISA; conditions: K1, 72 h
Plasmodium falciparum [12] = experiment: Antimalarial activity against Plasmodium falciparum INDO infected in erythrocytes assessed as inhibition of parasite growth incubated for 48 hrs by SYBR-Green I fluorescence-based assay; conditions: Erythrocyte
Plasmodium falciparum [13] = experiment: Antimalarial activity against Plasmodium falciparum 3D7 infected in erythrocytes assessed as inhibition of parasite growth incubated for 48 hrs by SYBR-Green I fluorescence-based assay; conditions: 3D7, Erythrocyte
Plasmodium falciparum [14] = experiment: Antimalarial activity against chloroquine-resistant Plasmodium falciparum K1

With `C/C(=C\c1ccccc1)C(=O)NCCOc1ccc2c(c1)[nH]c1c(C)nccc12` the IC50 (Plasmodium falciparum [1]) was 19.5 µM and the IC50 (Plasmodium falciparum [2]) was 6.78 µM.

With `COC(=O)c1cc2c3ccccc3n3c2c(n1)C(CC=C(C)C)OC(C)=C3` (centres undefined) the IC50 (Plasmodium falciparum [3]) was greater than 5 µM and the IC50 (Plasmodium falciparum [4]) was greater than 5 µM.

With `CC(C)(C)OC(=O)n1cc(CC2NCCc3c2[nH]c2ccccc32)c2ccccc21` (centres undefined) the IC50 (Plasmodium falciparum [5]) was 8.5 µM.

In the case of `COC(=O)c1cc2c3ccccc3n3c2c(n1)COC(C)=C3`, the IC50 (Plasmodium falciparum [3]) is reported as greater than 5 µM.

`COc1ccc2c3ccnc(C)c3n(CCNC(=O)/C=C/c3cccc(Br)c3)c2c1` gave an IC50 (Plasmodium falciparum [1]) of 0.41 µM and an IC50 (Plasmodium falciparum [2]) of 0.07 µM.

In the case of `Clc1ccc2[nH]c3c(N4CCC(N5CCCC5)CC4)nccc3c2c1`, the IC50 (Plasmodium falciparum [6]) is reported as 0.93 µM and the IC50 (Plasmodium falciparum [7]) is reported as 1.03 µM.

For `O=C(NCCCN1CCOCC1)C1Cc2c([nH]c3ccccc23)C(c2ccc(Cl)cc2)N1` (centres undefined), the IC50 (Plasmodium falciparum [8]) was 6.15 µM and the IC50 (Plasmodium falciparum [9]) was 11.5 µM.

Work on `CCC1NC(C(=O)NC23CC4CC(CC(C4)C2)C3)Cc2c1[nH]c1ccccc21` (centres undefined) yielded an IC50 (Plasmodium falciparum [8]) of 11.4 µM and an IC50 (Plasmodium falciparum [9]) of 9.73 µM.

`C=C(C#N)C1OC(C)=Cn2c3ccccc3c3cc(C(=O)OC)nc1c32` (centres undefined) was tested, and the IC50 (Plasmodium falciparum [3]) was greater than 5 µM.

Work on `Brc1ccc(C2NCCc3c2[nH]c2ccccc32)cc1` (centres undefined) yielded an IC50 (Plasmodium falciparum [10]) of 6.9 µM.

Molecule `C/C=C/C(=O)N1CCc2c([nH]c3ccccc23)C1CC(=O)OCC` (centres undefined) has an IC50 (Plasmodium falciparum [11]) of 13.8 µM.

`C=C(C)CC1OC(C)=Cn2c3ccccc3c3cc(C(=O)OC)nc1c32` (centres undefined) showed an IC50 (Plasmodium falciparum [3]) greater than 5 µM.

In the case of `O=[N+]([O-])c1ccc(C2NCCc3c2[nH]c2ccccc32)cc1` (centres undefined), the IC50 (Plasmodium falciparum [10]) is reported as 1.7 µM.

`COC(=O)C1Cc2c([nH]c3ccccc23)C(Cc2c[nH]c3ccccc23)N1` (centres undefined) showed an IC50 (Plasmodium falciparum [5]) of 17.2 µM.

Work on `CCN(CC)CCCC(C)Nc1nccc2c1[nH]c1ccc(F)cc12` (centres undefined) yielded an IC50 (Plasmodium falciparum [6]) of 0.37 µM and an IC50 (Plasmodium falciparum [7]) of 1.2 µM.

For `CCOC(=O)c1cc2c([nH]c3ccccc32)c(-c2ccc(NC(=S)Nc3ccc(OC(F)(F)F)cc3)cc2)n1`, the IC50 (Plasmodium falciparum [12]) was 0.39 µM and the IC50 (Plasmodium falciparum [13]) was 18.7 µM.

In the case of `COc1ccc2c3ccnc(C)c3n(CCNC(=O)/C=C/c3ccccc3)c2c1`, the IC50 (Plasmodium falciparum [1]) is reported as 1.11 µM and the IC50 (Plasmodium falciparum [2]) is reported as 0.49 µM.

`C=CCC1OC(C)=Cn2c3ccccc3c3cc(C(=O)OC)nc1c32` (centres undefined) gave an IC50 (Plasmodium falciparum [3]) greater than 5 µM and an IC50 (Plasmodium falciparum [4]) greater than 5 µM.

Work on `O=C(c1c[nH]c2ccc(O)cc12)c1nccc2c1[nH]c1ccc(O)cc12` [HYRTIOSULAWESINE] yielded an IC50 (Plasmodium falciparum [5]) of 1.3 µM.

For `CCCCCCCC[C@@H]1N[C@@H](C(=O)NCCC(C)(C)C)Cc2c1[nH]c1ccccc21`, the IC50 (Plasmodium falciparum [8]) was 4 µM and the IC50 (Plasmodium falciparum [9]) was 4.45 µM.

`C=C(CC1OC(C)=Cn2c3ccccc3c3cc(C(=O)OC)nc1c32)C(=O)OC` (centres undefined) was tested, and the IC50 (Plasmodium falciparum [3]) was 0.57 µM and the IC50 (Plasmodium falciparum [4]) was 0.72 µM.

With `Cc1nccc2c1[nH]c1cc(OCCNC(=O)/C=C/c3cccc(F)c3)ccc12` the IC50 (Plasmodium falciparum [1]) was 5.01 µM and the IC50 (Plasmodium falciparum [2]) was 2.75 µM.

For `CCOC(=O)c1cc2c([nH]c3ccccc32)c(-c2ccc(NC(=O)C(C)(C)C)cc2)n1`, the IC50 (Plasmodium falciparum [12]) was 2.38 µM and the IC50 (Plasmodium falciparum [13]) was 3.5 µM.

Work on `COC(=O)c1cc2c3cc(Cl)ccc3n3c2c(n1)COC(C)=C3` yielded an IC50 (Plasmodium falciparum [3]) of 1.78 µM and an IC50 (Plasmodium falciparum [4]) of 2.45 µM.

`CCOC(=O)c1cc2c([nH]c3ccccc32)c(-c2ccc(/N=C(/Nc3ccc(OC(F)(F)F)cc3)NC3CC3)cc2)n1` showed an IC50 (Plasmodium falciparum [12]) of 0.77 µM and an IC50 (Plasmodium falciparum [13]) of 1 µM.

For `COc1ccc(/C=C/C(=O)NCCOc2ccc3c(c2)[nH]c2c(C)nccc23)cc1`, the IC50 (Plasmodium falciparum [1]) was 1.09 µM and the IC50 (Plasmodium falciparum [2]) was 0.21 µM.

`CCOC(=O)c1cc2c([nH]c3ccccc32)c(-c2ccc(NC(=S)Nc3ccccc3)cc2)n1` was tested, and the IC50 (Plasmodium falciparum [12]) was 0.64 µM and the IC50 (Plasmodium falciparum [13]) was 6.4 µM.

For `CC#CCN1CCc2c([nH]c3ccccc23)C1CC(=O)OCC` (centres undefined), the IC50 (Plasmodium falciparum [11]) was 13.8 µM.

`COC(=O)c1cc2c3ccccc3n3c2c(n1)C(C1C=CCCC1)OC(C)=C3` (centres undefined) was tested, and the IC50 (Plasmodium falciparum [3]) was 1.64 µM and the IC50 (Plasmodium falciparum [4]) was greater than 5 µM.

Molecule `CCOC(=O)c1cc2c([nH]c3ccccc32)c(-c2ccc(/N=C(/Nc3ccccc3)NC3CC3)cc2)n1` has an IC50 (Plasmodium falciparum [12]) of 0.6 µM and an IC50 (Plasmodium falciparum [13]) of 1 µM.

Molecule `COC(=O)c1cc2c([nH]c3ccccc32)c(C(=O)c2c[nH]c3ccccc23)n1` has an IC50 (Plasmodium falciparum [5]) of 23.3 µM.

`Cc1nccc2c1[nH]c1cc(OCCNC(=O)/C=C/c3ccc(F)cc3)ccc12` showed an IC50 (Plasmodium falciparum [1]) of 0.69 µM and an IC50 (Plasmodium falciparum [2]) of 0.15 µM.

`C=CCC1OC(C)=Cn2c3ccc(Cl)cc3c3cc(C(=O)OC)nc1c32` (centres undefined) was tested, and the IC50 (Plasmodium falciparum [3]) was greater than 5 µM and the IC50 (Plasmodium falciparum [4]) was greater than 5 µM.

Work on `CC#CCN1CCc2c(n(C(=O)OC(C)(C)C)c3ccccc23)C1CC(=O)OCC` (centres undefined) yielded an IC50 (Plasmodium falciparum [14]) of 29.8 µM.

Molecule `Clc1ccc2[nH]c3c(NCCN4CCOCC4)nccc3c2c1` has an IC50 (Plasmodium falciparum [6]) of 2.35 µM and an IC50 (Plasmodium falciparum [7]) of 4.95 µM.

`CCOC(=O)CC1c2[nH]c3ccccc3c2CCN1S(=O)(=O)c1ccc(C)cc1` (centres undefined) gave an IC50 (Plasmodium falciparum [11]) of 13.8 µM.

Work on `C/C=C\CC1OC(C)=Cn2c3ccccc3c3cc(C(=O)OC)nc1c32` (centres undefined) yielded an IC50 (Plasmodium falciparum [3]) greater than 5 µM.

Work on `Cc1nccc2c1[nH]c1cc(OCCNC(=O)/C=C/c3cccc(Br)c3)ccc12` yielded an IC50 (Plasmodium falciparum [1]) of 0.48 µM and an IC50 (Plasmodium falciparum [2]) of 0.37 µM.

Work on `CCN(CC)CCCNc1nccc2c1[nH]c1ccc(F)cc12` yielded an IC50 (Plasmodium falciparum [6]) of 0.6 µM and an IC50 (Plasmodium falciparum [7]) of 0.3 µM.

Reference: ChEMBL document CHEMBL5360542, “Current development of β-carboline derived potential antimalarial scaffolds” (Eur J Med Chem, 2023)
